Where a chain is given by its changes, count along the chain named. Where “and” joins values, the source holds several entries; their conditions need not be identical. Equal values may be shown once.

Common to all, as to assay type: cell-based
Test [1] has as its target T1, α1β3 GABAA receptor (Homo sapiens, UniProt P14867+P28472).
T1 sequence (P28472 26-473): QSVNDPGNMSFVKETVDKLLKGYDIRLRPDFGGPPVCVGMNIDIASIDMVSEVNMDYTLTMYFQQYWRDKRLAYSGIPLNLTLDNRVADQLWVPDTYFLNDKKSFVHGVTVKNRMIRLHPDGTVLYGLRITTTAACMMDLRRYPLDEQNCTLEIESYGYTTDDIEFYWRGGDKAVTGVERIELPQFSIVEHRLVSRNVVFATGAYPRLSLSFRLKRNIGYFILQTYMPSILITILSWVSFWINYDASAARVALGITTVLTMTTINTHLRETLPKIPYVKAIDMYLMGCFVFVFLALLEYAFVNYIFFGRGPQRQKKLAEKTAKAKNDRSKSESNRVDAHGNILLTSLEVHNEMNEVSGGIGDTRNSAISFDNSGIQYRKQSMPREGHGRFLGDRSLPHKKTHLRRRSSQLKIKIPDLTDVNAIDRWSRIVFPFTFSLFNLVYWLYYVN
T1 sequence (P14867 28-456): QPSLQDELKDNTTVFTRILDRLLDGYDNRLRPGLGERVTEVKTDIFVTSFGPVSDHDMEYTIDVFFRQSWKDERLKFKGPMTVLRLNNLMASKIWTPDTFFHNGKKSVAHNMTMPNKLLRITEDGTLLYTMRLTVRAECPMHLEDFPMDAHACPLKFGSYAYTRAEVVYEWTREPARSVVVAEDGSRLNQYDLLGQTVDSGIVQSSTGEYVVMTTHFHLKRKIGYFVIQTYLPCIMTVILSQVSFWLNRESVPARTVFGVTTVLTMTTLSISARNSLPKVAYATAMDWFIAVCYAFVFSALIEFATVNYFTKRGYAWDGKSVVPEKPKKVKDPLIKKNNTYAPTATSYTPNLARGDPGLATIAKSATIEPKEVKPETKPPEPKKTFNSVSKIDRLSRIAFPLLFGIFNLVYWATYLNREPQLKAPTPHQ
As to conditions: for d / Po,max^est / nH: wild-type α1β3; for d: KO/KC, gating efficacy, MWC fit, n = 5 for propofol, 2 for GABA; for Po,max^est: estimated maximal open probability at saturating agonist; for nH: slope of concentration-response curve.

The target in test [2] is T2, α1β3(F221W) GABAA receptor (Homo sapiens, UniProt P14867+P28472, F246W).
T2 sequence (P28472 26-473 F246W): T1 sequence (P28472 26-473) with F221W
T2 sequence (P14867 28-456): T1 sequence (P14867 28-456)
The experiment in a line: Two-electrode voltage clamp activation of α1β3. As to conditions: for Po,max^est / nH / d: α1β3(F221W); for d: KO/KC, MWC fit.

In test [3] the target is T3, α1β3(Q224W) GABAA receptor (Homo sapiens, UniProt P14867+P28472, Q249W).
T3 sequence (P28472 26-473 Q249W): T1 sequence (P28472 26-473) with Q224W
T3 sequence (P14867 28-456): T1 sequence (P14867 28-456)
The experiment in a line: Two-electrode voltage clamp activation of α1β3. As to conditions: for Po,max^est / nH / d: α1β3(Q224W); for d: KO/KC, MWC fit.

The target in test [4] is T4, α1β3(M286W) GABAA receptor (Homo sapiens, UniProt P14867+P28472, M311W).
T4 sequence (P28472 26-473 M311W): T1 sequence (P28472 26-473) with M286W
T4 sequence (P14867 28-456): T1 sequence (P14867 28-456)
The experiment in a line: Two-electrode voltage clamp activation of α1β3. As to conditions: for Po,max^est / nH / d: α1β3(M286W); for d: KO/KC, MWC fit.

On to `NCCCC(=O)O` [GABA, γ-aminobutyric acid], for which the d was determined as 0.02±0.001 in test [1], 0.03±0.02 in test [2], 0.06±0.01 in test [3] and 0.005±0.002 in test [4]. For the same compound, the “Po,max^est” value in test [1] is reported as 0.65±0.04; in test [2] it was 1; in test [3], 0.24±0.03; in test [4] it was 0.94±0.01. Besides, the nH turned out to be 1.5±0.1 in test [1], 1.5±0.1 in test [2], 1.0±0.1 in test [3] and 1.8±0.2 in test [4].

For the compound `CC(C)c1cccc(C(C)C)c1O` [Propofol, 2,6-diisopropylphenol], the EC50 in test [1] (EC50, wild-type α1β3, direct activation, mean ± S.E.M., at least 4 cells) was 13 µM and 12.5 µM. Further, in test [1], the d stood at 0.24±0.01, the “Po,max^est” value is recorded as 0.50±0.02 and the nH is on record as 1.7±0.3. For the same compound, in test [2], the EC50 is 5 ± 0.5 µM, the Kd is 13.1 ± 1.5 µM, the “Po,max^est” value is on record as 1 and the nH is 1.9±0.3. Besides, the d in test [2] is 0.23±0.01. Further, in test [3], the response was half-maximal at 50 ± 2 µM (EC50), binding was characterised by a dissociation constant (Kd) of 336 ± 435 µM, the “Po,max^est” value was 1 and the nH was found to be 2.9±0.6. For the same compound, the d in test [3] was 0.04±0.05. For the same compound, in test [4], the EC50 worked out at 14 ± 0.7 µM, the Kd is 6 ± 1.4 µM, the “Po,max^est” value is 0.33±0.04 and the nH is recorded as 2.8±0.3. The d in test [4] came out at 0.27±0.01.

(Values after publication PMC5050400 (Current Neuropharmacology, 2016).)
